Two molecules from patent US20150150810A1, “TABLETS FOR COMBINATION THERAPY” (Gilead Sciences, Inc., priority 2009, published 2015) can be followed below.

Data set [1] in a line: Chemical stability of Formula IV in tablet combinations. Format: physicochemical. From the text:
Additionally, improper combinations of the compounds of Formula I, II, III, or IV in a bilayer tablet will also compromise the chemical stability of Formula IV. For example, Formula IV in the presence of silicon dioxide from the Formula II formulation will decompose Formula IV; and Formula IV in the in the presence of sodium lauryl sulphate from the Formula I formulation will decompose Formula IV.

Data set [2] in a line: Pharmacokinetic dose-ranging study of the compound of Formula II. Format: in vivo. To be noted: 100 mg dose. Here is the method:
A pharmacokinetic dose-ranging study involving the compound of Formula II was conducted. Doses for the compound of Formula II for the dose-ranging study included 50 mg, 100 mg and 200 mg.

Data set [3] in a line: Pharmacokinetic study of fixed-dose combinations of Formula I/Formula II/Formula III/Formula IV. Format: in vivo. Particulars: mean (CV %); for Cmax / AUC: in vivo. Here is the method: A pharmacokinetic study involving two fixed-dose combinations of the compounds of Formula I/Formula II/Formula III/Formula IV was also conducted. Doses for the fixed-dose combination of the compounds of Formula I/Formula II/Formula III/Formula IV were 150 mg/100 mg/200 mg/300 mg (Dose A) and 150 mg/150 mg/200 mg/300 mg (Dose B) respectively. Pharmacokinetic data for the compound of Formula II from the study involving the two fixed dose combinations (Dose A and Dose B) is provided in the following table.

Setting [4] is: in vivo, n = 11, arithmetic mean.
Setting [5] is: Dose A: 150 mg/100 mg/200 mg/300 mg, n = 43.
The mark [6] stands for this setting: Dose B: 150 mg/150 mg/200 mg/300 mg, n = 42.

`CC(C)OC(=O)OCOP(=O)(CO[C@H](C)Cn1cnc2c(N)ncnc21)OCOC(=O)OC(C)C.O=C(O)/C=C/C(=O)O` [Formula IV, tenofovir disoproxil fumarate]: the “chemical stability of Formula IV” value was “compromises the chemical stability” in data set [1] (Formula I, II, III and IV combined in a mixture as mono layer tablet); “decompose” in data set [1] (in the presence of silicon dioxide from the Formula II formulation); “decompose” in data set [1] (in the presence of sodium lauryl sulphate from the Formula I formulation).
As for `CC(C)c1nc(CN(C)C(=O)N[C@@H](CCN2CCOCC2)C(=O)N[C@H](CC[C@H](Cc2ccccc2)NC(=O)OCc2cncs2)Cc2ccccc2)cs1` [Formula II], the CL/F in data set [2] (n = 11, arithmetic mean) is listed as 33.2 L/h. In addition, the T1/2 in data set [2] (n = 11, median) is on record as 3.12 h. Also, the area under the curve (AUC) stood at 3440 ng·h/mL in data set [2] (setting [4]); 5150 ng·h/mL in data set [3] (Dose A: Formula I/II/III/IV 150 mg/100 mg/200 mg/300 mg, n = 43); 10400 ng·h/mL in data set [3] (Dose B: Formula I/II/III/IV 150 mg/150 mg/200 mg/300 mg, n = 42). For the same molecule, the Cmax came to 563 ng/mL in data set [2] (setting [4]), 855 ng/mL in data set [3] (setting [5]) and 1570 ng/mL in data set [3] (setting [6]). Besides, the figures for the Ctau in data set [3] (setting [5]) and in data set [3] (setting [6]) were 10.8 (83.6) ng/mL and 23.3 (103) ng/mL, respectively.
